Consider one compound from US10119972B2, “Reactive labelling compounds and uses thereof” (Academia Sinica, priority 2014, dated 2018).

Entries after “also recorded” stand apart in the source; their conditions may differ.

Format in all cases: physicochemical
Data set [1] in a line: SPAAC reaction kinetics of 101 with benzyl azide monitored by 1H-NMR. As to conditions: 101 with benzyl azide (1:1), 20 mM, CD3CN, 25° C. How it is done: To evaluate the feasibility of compound 101 as a reagent for the SPAAC-based fluorescence labeling, its reaction scope and kinetics using benzyl azide as a model substrate was first studied. The SPAAC reaction of 101 with benzyl azide in acetonitrile was completed in 2 h at room temperature to give triazole 111 in 95% yield (Scheme 100). The reactivity of 101 with benzyl azide (1:1) in CD3CN was determined by integration of multiple chemical shifts in the ^1H-NMR spectrum to yield a second-order rate constant of 0.012 M^−1s^−1 at 25° C. We also observed the cycloaddition reaction between 101 and N-azidoacetylmannosamine (ManNAz), proceeding similarly to give triazole 112 with a second-order rate constant of 0.010 M^−1s^−1 at 25° C. in a solution of CD3OD-D2O (5:1, v/v) (FIGS. 17 and 18).
Part A: Compound 101 and benzyl azide were predissolved in CD3CN, and then mixed at equimolar concentration of 20 mM. The reaction was monitored by ^1H-NMR analysis over a period of 1 h. The concentration of each component was determined, based on the concentration of initial compound 101, by integration at multiple chemical shifts in the ^1H-NMR spectrum. […] (M^−1) vs. time (sec), a second order rate constant in unit of M^−1s^−1 was determined using linear regression analysis. […]
FIG. 17 describes a Plot of 1/[101] vs. time for the reaction of compound 101 and benzyl azide in CD3CN as monitored by ^1H-NMR.

Data set [2] can be described thus: Absorption and fluorescence spectroscopy under simulated physiological conditions. As to conditions: PBS buffer containing 10% DMSO, pH 7.4. Here is the method: Formation of triazoles 111 and 112 were accompanied by a significant increase in fluorescence intensity with a large Stokes shift into a standard range for coumarin emission (FIG. 16a).
(§1) FIG. 16 describes (a) Absorption and Fluorescence emission spectra (λex=330 nm) of 101 (black), 111 (blue) and 112 (red) (45 μM, PBS buffer containing 10% DMSO, pH 7.4). (b) Time course of normalized fluorescence intensity at 435 nm (λex=330 nm) for the ligation reaction of 101 (30 μM) with N-azidoacetylmannosamine (30 μM) in PBS buffer containing 10% DMSO.

Data set [3] can be described thus: Fluorescence time course of ligation of 101 with ManNAz. As to conditions: 101 (30 μM) with ManNAz (30 μM), PBS buffer containing 10% DMSO. Here is the method:
To probe the SPAAC reaction under the conditions that would be more typical for biomolecule labeling, we investigated the fluorescence response and time course for the reaction of 101 with ManNAz.
as §1
A solution of probe 101 (0.075 μmol) and N-azidoacetylmannosamine (0.075 μmol) in a mixture of 10% DMSO in PBS buffer (2.5 mL) was incubated at 37° C. The fluorescence emission intensity at 435 nm upon excitation at 330 nm was monitored in 5 min intervals. For each point the fluorescence intensity was measured over a period of 5 sec and averaged over a total of 3 points. In a control experiment the same conditions were used except that N-acetylmannosamine (0.075 μmol) was added to the solution.

The nature of data set [4]: Stability in presence of 3-mercaptopropionic acid by 1H-NMR. As to conditions: 25 mM in CDCl3 with 3-mercaptopropionic acid (32 mM), 25° C., 24 h. Here is the method: A potential problematic side reaction of cyclooctynes is the addition with proteinic or endogenous thiols to the corresponding vinyl sulfides. To test whether potential non-specific stainings of 101 and the corresponding triazole 111 may occur due to additions of the SH groups to the triple bond or double bond by proteinic or endogenous thiols, the experiment was performed by incubation of 101 and 111 with 3-mercaptopropionic acid in CDCl3 (FIGS. 25 and 26).
A solution of compound 101 and compound 111 (25 mM in CDCl3) was incubated with a solution of 3-mercaptopropionic acid (32 mM in CDCl3) at room temperature (25° C.).
FIG. 25 show ^1H-NMR spectrum in CDCl3 of compound 101 and 3-mercaptopropionic acid alone, and ^1H-NMR spectrum of compound 101 was treated with 3-mercaptopropionic acid at 25° C. for 0 h, 2 h and 24 h.

In data set [1], `O=c1ccc2cc3c(cc2o1)C#CCCCC3` [Compound 101, 6,7,8,9-Tetrahydro-10,11-didehydro-cycloocta[g]chromen-2(2H)-one] returned a second-order rate constant of 0.012 M⁻¹ s⁻¹. Besides, in data set [2], the “Absorption (λmax, nm)” value is reported as 336 nm and the “Stokes shift” value is 5070 cm⁻¹. Also, in data set [2] (excitation at 330 nm), the “Emission (λmax, nm)” value was 405 nm. Moreover, in data set [2] (measured at 340 nm), the “ε (M^−1cm^−1), extinction coefficient” value was 7800 M⁻¹ cm⁻¹. Besides, the “Φf, fluorescence quantum yield” value in data set [2] (quinine sulfate (Φf = 0.54 ± 0.03) as standard) is on record as 0.011. Moreover, the “time for fluorescence intensity to reach a plateau” value in data set [3] (435 nm (λex=330 nm)) is “less than 1 h”. Also, the ManNAz consumed entry in data set [3] (in 40 min) is given as “more than 90%”. For the same compound, the “thiol-yne or thiol-ene addition / stability in the presence of thiols” value in data set [4] was “inactive; also recorded: high stability”.
